Values quoted from earlier work, collected in US8440424B2, “Identification of antibiotic resistance using labelled antibiotics” (miacom Diagnostics GmbH, priority 2008, dated 2013).
Where two headings read alike, the source gives them in different places. Positions of bridges follow the written chain, without caps; N, C: chain ends. Non-standard residues stand in square brackets, D forms with d. Residues, ends and D or L forms follow the SMILES beside them. *: point of attachment. NMePhe(4-NMe2) = CN[C@@H](Cc1ccc(N(C)C)cc1)C(=O)O; Pip(4-oxo) = O=C1CCN[C@H](C(=O)O)C1; Picolinoyl(3-OH) = O=C(c1ncccc1O)*; Phg = N[C@H](C(=O)O)c1ccccc1; dAbu = CC[C@@H](N)C(=O)O

Test system: 23S rRNA
Details: cited from earlier work
[1] = 23S rRNA position 2611 "C to G", Chlamydomonas reinhardtii, Harris et al. 1989
[2] = 23S rRNA position 2611 "C to U", Chlamydomonas reinhardtii, Harris et al. 1989

C[C@H]1O[C@H](O[C@H]2CC[C@H](n3ccc(NC(=O)c4ccc(NC(=O)[C@@](C)(N)CO)cc4)nc3=O)O[C@@H]2C)[C@H](O)[C@@H](O)[C@@H]1N(C)C [Amicetin]
Phenotype (23S rRNA position 2438 U to A, Halobacterium halobium, Leviev 1994): Amicetin resistance | Phenotype (23S rRNA position 2438 U to C, Halobacterium halobium, Leviev 1994): Amicetin resistance.

COc1ccc(C[C@H]2NC[C@H](O)[C@H]2OC(C)=O)cc1 [Animosycin]
Phenotype (23S rRNA position 2452 C to U, Halobacterium, Hummel 1987): Animosycin resistance. | Phenotype (23S rRNA position 2452 C to U, Tetrahymena thermophilia, Sweeney 1991): Animosycin resistance

COc1ccc(C[C@H]2NC[C@H](O)[C@H]2OC(C)=O)cc1 [Anisomycin]
Phenotype (23S rRNA position 2447 G to C, Halobacterium halobium, Hummel 1987): resistance. | Phenotype (23S rRNA position 2453 A to C, Halobacterium halobium, Hummel 1987): Anisomycin resistance

O=C(N[C@H](CO)[C@H](O)c1ccc([N+](=O)[O-])cc1)C(Cl)Cl [CAM]
Phenotype (23S rRNA position 2505 G to C (with A1067U and thiostrepton), E. coli, Saarma 1992, 1993): Hypersensitivity to CAM;

O=C(N[C@H](CO)[C@H](O)c1ccc([N+](=O)[O-])cc1)C(Cl)Cl [Chloramphenicol]
Phenotype (23S rRNA position 2061 G to A, Rat mitochondria): resistance | Phenotype (23S rRNA position 2062 A to C, Halobacterium halobium): resistance. | Phenotype (23S rRNA position 2447 G to A, Yeast mitochondria, Dujon 1980): resistance. | Phenotype (23S rRNA position 2451 A to U, Mouse mitochondria, Kearsey 1981): resistance. | Phenotype (23S rRNA position 2452 C to A, Human mitochondria, Blanc 1981): resistance. | Phenotype (23S rRNA position 2452 C to U, Halobacterium halobium, Mankin 1991): resistance. | Phenotype (23S rRNA position 2452 C to U, Mouse mitochondria, Slott 1983): resistance | Phenotype (23S rRNA position 2503 A to C, Yeast mitochondria, Dujon 1980): resistance | Phenotype (23S rRNA position 2504 U to C, Human mitochondria, Kearsey 1981): resistance | Phenotype (23S rRNA position 2504 U to C, Mouse mitochondria, Blanc 1981): resistance

CC[C@H]1OC(=O)[C@H](C)[C@@H](O[C@H]2C[C@@](C)(OC)[C@@H](O)[C@H](C)O2)[C@H](C)[C@@H](O[C@@H]2O[C@H](C)C[C@H](N(C)C)[C@H]2O)[C@](C)(OC)C[C@@H](C)C(=O)[C@H](C)[C@@H](O)[C@]1(C)O [Clarithomycin]
Phenotype (23S rRNA position 2059 A to G, Helicobacter pylori): resistance.

CC[C@H]1OC(=O)[C@H](C)[C@@H](O[C@H]2C[C@@](C)(OC)[C@@H](O)[C@H](C)O2)[C@H](C)[C@@H](O[C@@H]2O[C@H](C)C[C@H](N(C)C)[C@H]2O)[C@](C)(OC)C[C@@H](C)C(=O)[C@H](C)[C@@H](O)[C@]1(C)O [Clarithromycin]
Phenotype (23S rRNA position 2058 A to G, Helicobacter pylori): resistance

CC[C@H]1OC(=O)[C@H](C)[C@@H](O[C@H]2C[C@@](C)(OC)[C@@H](O)[C@H](C)O2)[C@H](C)[C@@H](O[C@@H]2O[C@H](C)C[C@H](N(C)C)[C@H]2O)[C@](C)(O)C[C@@H](C)C(=O)[C@H](C)[C@@H](O)[C@]1(C)O [Ery]
Phenotype (23S rRNA double mutation (A2058U/G2032A), E. coli): hs | Phenotype (23S rRNA double mutation (G2032A/A2058U), E. coli): hs | Phenotype (23S rRNA double mutation (G2057A/C2661U), E. coli): Slightly Eryr; | Phenotype [1]: Eryr | Phenotype [2]: Eryr | Phenotype (23S rRNA position 2611 "C to U", double mutation (C2611U/G2057A), E. coli, Vester et al. 1995): Slightly Eryr; reduced

CC[C@H]1OC(=O)[C@H](C)[C@@H](O[C@H]2C[C@@](C)(OC)[C@@H](O)[C@H](C)O2)[C@H](C)[C@@H](O[C@@H]2O[C@H](C)C[C@H](N(C)C)[C@H]2O)[C@](C)(O)C[C@@H](C)C(=O)[C@H](C)[C@@H](O)[C@]1(C)O [Erythromycin]
Phenotype (23S rRNA double deletion (1230/1231), E. coli): Erythromycin sensitive. a Double | Phenotype (23S rRNA double mutant (C1207U/C1243U), E. coli): Erythromycin resistant. a Double | Phenotype (23S rRNA double mutant (C1208U/C1243U), E. coli): Erythromycin resistant. a Double | Phenotype (23S rRNA double mutant (C1211U/C1208U), E. coli): Erythromycin sensitive. a Double | Phenotype (23S rRNA double mutant (C1221U/C1229U), E. coli): Erythromycin resistant. a Double | Phenotype (23S rRNA double mutant (C1221U/C1233U), E. coli): Erythromycin resistant. a Double | Phenotype (23S rRNA double mutant (C1243U/C1221U), E. coli): Erythromycin resistant. a Double | Phenotype (23S rRNA double mutant (G1220A/G1239A), E. coli): Erythromycin resistant. a Double | Phenotype (23S rRNA double mutant (G1232A/G1238A), E. coli): Erythromycin sensitive. a Double | Phenotype (23S rRNA position 1233 C to U, E. coli): Erythromycin sensitive. a | Phenotype (23S rRNA position 1234 U to C, E. coli): Erythromycin sensitive. a | Phenotype (23S rRNA position 1234 del1234/del1235, double mutant (U1234C/del1235), E. coli): Erythromycin sensitive. a Double | Phenotype (23S rRNA position 2058 A to G, Yeast mitochondria): resistance. | Phenotype (23S rRNA position 2611 "C to G", Chlamydomonas reinhardtii, Gauthier et al. 1988): spiramycin resistance | Phenotype (23S rRNA position 2611 "C to G", Yeast mitochondria, Sor and Fukahara 1984): spiramycin resistance

CCC[C@@H]1C[C@@H](C(=O)N[C@@H]([C@H]2O[C@H](SC)[C@H](O)[C@@H](O)[C@H]2O)[C@@H](C)O)N(C)C1 [Lincomycin]
Phenotype (23S rRNA position 2032 G to A, Tobbaco chloroplasts): resistance. | Phenotype (23S rRNA position 2058 A to G, Chlamydomonas reinhardtii): resistance. | Phenotype (23S rRNA position 2058 A to G, Solanum nigrum): resistance. | Phenotype (23S rRNA position 2058 A to G, Tobacco chloroplasts): resistance. | Phenotype (23S rRNA position 2059 A to G, Tobacco chloroplasts): resistance.

CSC[S@+]([O-])C[C@H](CO)NC(=O)/C=C/c1c(C)[nH]c(=O)[nH]c1=O [Sparsomycin]
Phenotype (23S rRNA position 2499 C to U, Halobacterium halobium, Tan 1996): resistance

O=C(N[C@H](CO)[C@H](O)c1ccc([N+](=O)[O-])cc1)C(Cl)Cl [chloramphenicol]
Phenotype (23S rRNA position 2505 G to A, E. coli, Hansen 1999): Conferred resistance to

CC[C@H]1OC(=O)[C@H](C)[C@@H](O[C@H]2C[C@@](C)(OC)[C@@H](O)[C@H](C)O2)[C@H](C)[C@@H](O[C@@H]2O[C@H](C)C[C@H](N(C)C)[C@H]2O)[C@](C)(O)C[C@@H](C)C(=O)[C@H](C)[C@@H](O)[C@]1(C)O [erythromycin]
Phenotype (23S rRNA double mutant (A1262G/U2017C), E. coli, growth on erythromycin): Wild-type growth on | Phenotype (23S rRNA double mutant (A1262U/U2017A), E. coli, growth on erythromycin): Wild-type growth on | Phenotype (23S rRNA double mutant (G1137A/G1138C), E. coli, with 2058G and erythromycin, expressed from rrnB promoter): lethal when expressed from rrnB | Phenotype (23S rRNA position 1068 G to A, E. coli, with 2058G, expressed from rrnB or pL promotor in presence of erythromycin): 2058G) Lethal when | Phenotype (23S rRNA position 1072 C to U, E. coli, expressed from rrnB or pL promotor in presence of erythromycin): Lethal when expressed from | Phenotype (23S rRNA position 1137 G to A, E. coli, with 2058G and erythromycin, expressed from rrnB promoter): lethal when expressed from rrnB | Phenotype (23S rRNA position 1138 G to C, E. coli, with 2058G and erythromycin, expressed from rrnB promoter): lethal when expressed from rrnB | Phenotype (23S rRNA position 1262 A to C, E. coli, with erythromycin): With erythromycin; lethal | Phenotype (23S rRNA position 1262 A to G, E. coli, with erythromycin): With erythromycin; lethal

CCC[C@@H]1C[C@@H](C(=O)N[C@@H]([C@H]2O[C@H](SC)[C@H](O)[C@@H](O)[C@H]2O)[C@@H](C)O)N(C)C1 [lincomycin]
Phenotype [1]: low level | Phenotype [2]: low level

CC[C@H]1NC(=O)[C@@H](NC(=O)c2ncccc2O)[C@@H](C)OC(=O)[C@H](c2ccccc2)NC(=O)[C@@H]2CC(=O)CCN2C(=O)[C@H](Cc2ccc(N(C)C)cc2)N(C)C(=O)[C@@H]2CCCN2C1=O [pristinamycin 1A] ({Picolinoyl(3-OH)}-T[dAbu]P[NMePhe(4-NMe2)][Pip(4-oxo)][Phg]; ester 1-C)
Phenotype (23S rRNA A2602C/C2501A, E. coli, binding on peptidyl transferase loop, Porse 1999): Inhibits binding of 1A | Phenotype (23S rRNA U2500A/C2501A, E. coli, binding on peptidyl transferase loop, Porse 1999): Inhibits binding of 1A

CSC[S@+]([O-])C[C@H](CO)NC(=O)/C=C/c1c(C)[nH]c(=O)[nH]c1=O [sparsomycin]
Phenotype (level of resistance) (23S rRNA position 2452 C to U, Halobacterium halobium, Tan 1996): Low level sparsomycin
